In ChEMBL document CHEMBL5230127, “Research progress of mTOR inhibitors” (Eur J Med Chem, 2020):
Values belong to the compound of their own block, whether it stands above or below them.

Legend:
Cortical neurone [1] = assay: Neuroprotective activity in rat Primary cortical neuron assessed as increase in neuronal survival by measuring neurofilament incubated for 72 hrs by ELISA; assay type: functional, cell-based
Cortical neurone [2] = assay: Neuroprotective activity in rat Primary cortical neuron assessed as increase in neurite outgrowth incubated for 72 hrs by cellomics array-scan assay; assay type: functional, cell-based
[3] = biological target: T1, Serine/threonine-protein kinase mTOR (Homo sapiens, UniProt P42345); assay: Inhibition of mTOR (unknown origin) assessed as inhibition constant using GFP-4EBP1 as substrate by Lanthascreen based time resolved fluorescence based assay
[4] = biological target: Phosphatidylinositol 4,5-bisphosphate 3-kinase catalytic subunit alpha isoform (Homo sapiens, UniProt P42336); assay: Inhibition of PIK3alpha (unknown origin) expressed in baculovirus assessed as inhibition constant using PIP2 as substrate in presence of [gamma-32P]ATP incubated for 30 mins by scintillation proximity assay
Phosphatidylinositol 4,5-bisphosphate 3-kinase catalytic subunit alpha isoform, sequence (P42336 whole entry, canonical isoform): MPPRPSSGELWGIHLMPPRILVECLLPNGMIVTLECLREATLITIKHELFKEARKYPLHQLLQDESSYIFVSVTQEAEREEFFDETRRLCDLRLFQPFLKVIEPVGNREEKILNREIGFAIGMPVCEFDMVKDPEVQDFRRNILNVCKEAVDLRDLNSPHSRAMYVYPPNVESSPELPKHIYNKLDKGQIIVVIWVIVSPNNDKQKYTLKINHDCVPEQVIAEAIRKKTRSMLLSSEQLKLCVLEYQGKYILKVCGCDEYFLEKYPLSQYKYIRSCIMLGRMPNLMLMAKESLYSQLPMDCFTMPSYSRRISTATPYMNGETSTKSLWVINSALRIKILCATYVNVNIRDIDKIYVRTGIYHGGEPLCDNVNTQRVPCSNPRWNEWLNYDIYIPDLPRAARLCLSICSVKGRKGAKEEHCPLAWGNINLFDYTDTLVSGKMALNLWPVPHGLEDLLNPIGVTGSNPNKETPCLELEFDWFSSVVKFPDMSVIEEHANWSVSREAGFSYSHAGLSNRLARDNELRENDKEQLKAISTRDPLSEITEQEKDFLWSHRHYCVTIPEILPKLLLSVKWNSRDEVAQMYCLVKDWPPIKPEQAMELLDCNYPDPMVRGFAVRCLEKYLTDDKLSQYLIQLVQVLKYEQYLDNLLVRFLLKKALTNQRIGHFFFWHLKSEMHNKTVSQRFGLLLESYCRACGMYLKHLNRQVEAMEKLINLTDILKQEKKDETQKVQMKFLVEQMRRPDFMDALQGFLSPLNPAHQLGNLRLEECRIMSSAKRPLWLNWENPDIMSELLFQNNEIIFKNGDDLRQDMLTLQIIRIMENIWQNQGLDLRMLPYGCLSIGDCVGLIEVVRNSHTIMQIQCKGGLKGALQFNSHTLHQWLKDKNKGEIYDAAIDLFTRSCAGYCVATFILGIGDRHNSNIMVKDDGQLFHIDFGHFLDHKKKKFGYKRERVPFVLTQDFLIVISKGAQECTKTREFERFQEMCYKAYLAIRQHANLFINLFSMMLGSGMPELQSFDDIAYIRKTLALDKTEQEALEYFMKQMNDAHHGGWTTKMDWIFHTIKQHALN

[5] = biological target: Serine/threonine-protein kinase mTOR (Rattus norvegicus, UniProt P42346); assay: Inhibition of mTOR in rat brain by […] immunoblot assay; assay type: tissue-based
[6] = biological target: T1, Serine/threonine-protein kinase mTOR; assay: Binding affinity to mTOR (unknown origin) assessed as dissociation constant by measuring pKd
mTORC2 = mTORC2 (Homo sapiens, UniProt P42345); assay: Inhibition of mTORC2 in human LN-229 cells assessed as decrease in phosphorylation of AKT at Ser473 level incubated for 24 hrs by immunoblot assay; assay type: cell-based
[7] = biological target: T1, Serine/threonine-protein kinase mTOR
Splenocyte = assay: Immunosuppressive activity in BDF1 mouse Splenocyte assessed as inhibition of concanavalin A induced T-cell proliferation incubated for 72 hrs by [3H]-thymidine incorporation based liquid scintillation counter analysis; assay type: functional
[8] = Inhibition of DNAPK in human HCT-116 cells preincubated for 1 hr followed by UV radiation and measured after 1 hr by Bradford assay based immunoblotting analysis; assay type: cell-based

SMILES: CO[C@H]1C[C@@H]2CC[C@@H](C)[C@@](O)(O2)C(=O)C(=O)N2CCCC[C@H]2C(=O)O[C@H]([C@H](C)C[C@@H]2CC[C@@H](O)[C@H](OC)C2)CC(=O)[C@H](C)/C=C(\C)[C@@H](O)[C@@H](OC)C(=O)[C@H](C)C[C@H](C)C2C=CC(/C=C/1C)ON2c1ccccc1
EC50 (Cortical neurone [1]): 700 nM | EC50 (Cortical neurone [2]): 420 nM

SMILES: O=C(O[C@@H]1Cc2c(O)cc(O)cc2O[C@@H]1c1cc(O)c(O)c(O)c1)c1cc(O)c(O)c(O)c1 [EPIGALOCATECHIN GALLATE]
Ki [3]: 320 nM | Ki [4]: 380 nM

SMILES: COC[C@H]1OC(=O)c2coc3c2[C@@]1(C)C1=C(C3=O)[C@@H]2CCC(=O)[C@@]2(C)C[C@H]1OC(C)=O [WORTMANNIN]
IC50 [5]: 300 nM

Kd [6]: 204 nM
SMILES: CNc1ncnn2c(C3CCC(C(=O)O)CC3)nc(-c3cc4cccc(OC5CCOC5)c4[nH]3)c12 (stereo unspecified)

IC50 (mTORC2): 310 nM
SMILES: CC1CN(C(=O)Nc2ccc(Cl)c(Cl)c2)/C(=N/c2cccc(F)c2)S1 (stereo unspecified)

SMILES: COc1cccc2cc(-c3nc(C4CCC(C(=O)O)CC4)n4ncnc(N)c34)[nH]c12 (stereo unspecified)
IC50 [7]: 4 nM

SMILES: CO[C@@H]1C[C@H](C[C@@H](C)[C@@H]2CC(=O)[C@H](C)/C=C(\C)[C@@H](O)[C@@H](OC)C(=O)[C@H](C)C[C@H](C)/C=C/C=C/C=C(\C)[C@@H](OCc3ccccc3)C[C@@H]3CC[C@@H](C)[C@@](O)(O3)C(=O)C(=O)N3CCCC[C@H]3C(=O)O2)CC[C@H]1O
IC50 (Splenocyte): 6 nM

SMILES: CO[C@@H]1C[C@H](C[C@@H](C)[C@@H]2CC(=O)[C@H](C)/C=C(\C)[C@@H](O)[C@@H](OC)C(=O)[C@H](C)C[C@H](C)/C=C/C=C/C=C(\C)CC[C@@H]3CC[C@@H](C)[C@@](O)(O3)C(=O)C(=O)N3CCCC[C@H]3C(=O)O2)CC[C@H]1O
IC50 (Splenocyte): 2 nM

IC50 [8]: < 10 nM
SMILES: Nc1ccc(-c2ccc3ncc4ccc(=O)n(-c5cccc(C(F)(F)F)c5)c4c3c2)cn1
